# The source made the active and inactive calls.
# Tests used:
# [1] = biological target: T1, Heat shock factor protein 1 (Mus musculus, UniProt P38532); experiment: enhancement of HSF1-driven luciferase signal – cell-based, NIH3T3, luminescence, dose retest, confirmation (AID 435004); type: functional;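 also: stress induced by proteasome inhibitor MG132 added 30 min after compound; luciferase reporter driven by HSF1 response element in NIH3T3 cells; actives raise luminescence as potentiators of the MG132 stress response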
# T1 sequence (P38532 whole entry): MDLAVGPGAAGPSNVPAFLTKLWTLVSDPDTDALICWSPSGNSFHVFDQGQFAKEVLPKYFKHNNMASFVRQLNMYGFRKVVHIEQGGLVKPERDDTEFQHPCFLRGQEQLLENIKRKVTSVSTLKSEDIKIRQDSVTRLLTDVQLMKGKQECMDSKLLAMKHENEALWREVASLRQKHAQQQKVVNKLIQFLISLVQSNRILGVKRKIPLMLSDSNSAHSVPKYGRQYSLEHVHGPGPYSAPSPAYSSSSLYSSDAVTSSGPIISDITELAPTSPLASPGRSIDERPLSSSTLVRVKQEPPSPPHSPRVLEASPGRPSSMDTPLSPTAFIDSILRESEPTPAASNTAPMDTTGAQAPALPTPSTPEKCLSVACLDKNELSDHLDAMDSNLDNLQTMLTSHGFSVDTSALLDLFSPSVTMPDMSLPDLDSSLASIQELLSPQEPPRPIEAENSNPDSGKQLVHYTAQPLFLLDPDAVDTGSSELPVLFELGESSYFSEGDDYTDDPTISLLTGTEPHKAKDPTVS
# [2] = biological target: T1, Heat shock factor protein 1; experiment: decrease of HSF1-responsive luciferase luminescence – cell-based, NIH3T3, dose retest, confirmation (AID 2382); type: functional;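 also: NIH3T3 fibroblasts with HSF1-driven luciferase reporter stressed by proteasome inhibitor MG132; luminescence from HSF1-driven luciferase expression after 8 hours of MG132 stress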
# [3] = Luminescence Cell-Based Dose Response HTS to Identify Inhibitors of 5'UTR Stem-Loop Driven Prion Protein mRNA Translation in H4 Neuroglioblastoma Cells. [Related pubchem assays: 1827 (Project Summary), 1813 (Primary HTS)]; type: functional
# [4] = microbe, parasite or virus in culture; type: functional; conditions: Mycobacterium tuberculosis
# [5] = biological target: Cytochrome P450 2D6 (Homo sapiens, UniProt P10635);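 also: CYP2D6 member of a cytochrome P450 panel assay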
# Chain of Cytochrome P450 2D6 (P10635 whole entry): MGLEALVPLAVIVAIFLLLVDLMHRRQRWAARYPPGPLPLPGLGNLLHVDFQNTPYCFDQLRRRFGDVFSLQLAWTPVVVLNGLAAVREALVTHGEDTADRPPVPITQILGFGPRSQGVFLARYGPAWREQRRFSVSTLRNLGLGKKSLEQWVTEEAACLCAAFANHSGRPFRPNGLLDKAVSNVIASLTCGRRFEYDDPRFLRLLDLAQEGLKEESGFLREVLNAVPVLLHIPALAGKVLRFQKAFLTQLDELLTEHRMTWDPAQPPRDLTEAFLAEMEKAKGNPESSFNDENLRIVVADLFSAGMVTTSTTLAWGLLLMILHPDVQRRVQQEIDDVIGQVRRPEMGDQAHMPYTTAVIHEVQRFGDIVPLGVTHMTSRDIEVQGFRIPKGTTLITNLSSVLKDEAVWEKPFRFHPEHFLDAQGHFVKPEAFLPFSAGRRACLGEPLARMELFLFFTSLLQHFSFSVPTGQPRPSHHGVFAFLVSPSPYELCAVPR
# [6] = biological target: Cytochrome P450 2C9 (Homo sapiens, UniProt P11712)
# Chain of Cytochrome P450 2C9 (P11712 whole entry): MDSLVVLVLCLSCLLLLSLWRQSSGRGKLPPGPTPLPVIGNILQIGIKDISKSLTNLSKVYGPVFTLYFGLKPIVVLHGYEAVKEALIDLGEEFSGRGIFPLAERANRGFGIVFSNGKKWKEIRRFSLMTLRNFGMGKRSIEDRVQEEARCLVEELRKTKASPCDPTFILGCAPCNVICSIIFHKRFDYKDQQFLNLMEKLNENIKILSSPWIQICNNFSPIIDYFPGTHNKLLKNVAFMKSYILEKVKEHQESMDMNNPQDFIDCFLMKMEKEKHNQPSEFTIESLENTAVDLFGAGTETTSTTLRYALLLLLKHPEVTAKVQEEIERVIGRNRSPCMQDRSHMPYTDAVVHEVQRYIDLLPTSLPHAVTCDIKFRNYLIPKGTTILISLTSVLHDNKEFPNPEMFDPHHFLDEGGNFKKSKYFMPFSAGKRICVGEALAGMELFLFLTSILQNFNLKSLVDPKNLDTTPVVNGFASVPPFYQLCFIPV
# [7] = Trypanosoma cruzi growth suppression in host cells – NIH3T3 host cells, beta-gal luminescence, confirmation (AID 2044); type: functional, cell-based;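 also: intracellular parasites grown in NIH/3T3 mouse fibroblasts as host cells; luminescent beta-galactosidase reporter signal from transgenic T. cruzi replicating inside host cells; inhibitors lower the luminescence signal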
# [8] = NIH3T3 cell viability loss – ATP luminescence, mouse fibroblasts, counter-screen, dose response (AID 2010); type: functional, cell-based;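 also: cells exposed to compound for about 90 hours before reading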
# [9] = biological target: FAD-linked sulfhydryl oxidase ALR (Homo sapiens, UniProt P55789); experiment: ALR-catalysed DTT oxidation blockers – biochemical, H2O2 detection, luminescence, cherry-pick, dose response (AID 493248)
# Chain of FAD-linked sulfhydryl oxidase ALR (P55789 whole entry): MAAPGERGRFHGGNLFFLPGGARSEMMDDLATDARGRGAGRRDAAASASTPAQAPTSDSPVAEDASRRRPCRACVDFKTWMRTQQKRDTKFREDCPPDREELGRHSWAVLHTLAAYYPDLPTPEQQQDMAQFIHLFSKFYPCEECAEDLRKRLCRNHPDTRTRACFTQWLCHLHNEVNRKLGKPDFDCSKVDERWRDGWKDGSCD
# [10] = NIH-3T3 fibroblast cytotoxicity, dose response, cytotoxicity control, cell-based, fluorescence, Alamar Blue, secondary assay (AID 2327); type: functional;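 also: NIH-3T3 mouse fibroblasts cultured with fluconazole at 8 µg/mL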
# [11] = luciferase reporter signal suppression in cells – H4 neuroglioma cells, luminescence, dose response (AID 1990); type: functional, cell-based
# [12] = alpha-synuclein stem-loop luciferase translation blockers – H4 neuroglioma cells, luminescence, confirmation (AID 1988); type: functional, cell-based
# [13] = biological target: Cytochrome P450 2C19 (Homo sapiens, UniProt P33261); experiment: Cytochrome panel assay with activity outcomes. Panel member name: p450-cyp2c19 Compounds with AC50 equal or less than 10 uM are considered active; type: functional; conditions: read-out: AC50
# Chain of Cytochrome P450 2C19 (P33261 whole entry): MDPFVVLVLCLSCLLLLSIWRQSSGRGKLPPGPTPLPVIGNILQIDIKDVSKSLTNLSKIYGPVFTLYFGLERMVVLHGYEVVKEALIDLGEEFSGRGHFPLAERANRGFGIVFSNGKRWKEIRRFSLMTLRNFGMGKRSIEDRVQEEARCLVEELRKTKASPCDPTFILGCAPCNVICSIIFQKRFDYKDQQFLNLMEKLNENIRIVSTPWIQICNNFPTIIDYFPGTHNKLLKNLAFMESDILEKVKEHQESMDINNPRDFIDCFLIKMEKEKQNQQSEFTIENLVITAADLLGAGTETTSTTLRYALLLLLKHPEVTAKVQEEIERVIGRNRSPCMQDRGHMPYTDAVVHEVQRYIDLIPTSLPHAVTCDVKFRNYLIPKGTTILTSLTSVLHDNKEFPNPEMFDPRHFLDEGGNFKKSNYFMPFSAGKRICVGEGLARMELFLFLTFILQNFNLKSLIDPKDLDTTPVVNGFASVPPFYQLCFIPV
# [14] = biological target: Cytochrome P450 3A4 (Homo sapiens, UniProt P08684);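 also: CYP3A4 tested as one member of a cytochrome P450 panel screen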
# Chain of Cytochrome P450 3A4 (P08684 whole entry): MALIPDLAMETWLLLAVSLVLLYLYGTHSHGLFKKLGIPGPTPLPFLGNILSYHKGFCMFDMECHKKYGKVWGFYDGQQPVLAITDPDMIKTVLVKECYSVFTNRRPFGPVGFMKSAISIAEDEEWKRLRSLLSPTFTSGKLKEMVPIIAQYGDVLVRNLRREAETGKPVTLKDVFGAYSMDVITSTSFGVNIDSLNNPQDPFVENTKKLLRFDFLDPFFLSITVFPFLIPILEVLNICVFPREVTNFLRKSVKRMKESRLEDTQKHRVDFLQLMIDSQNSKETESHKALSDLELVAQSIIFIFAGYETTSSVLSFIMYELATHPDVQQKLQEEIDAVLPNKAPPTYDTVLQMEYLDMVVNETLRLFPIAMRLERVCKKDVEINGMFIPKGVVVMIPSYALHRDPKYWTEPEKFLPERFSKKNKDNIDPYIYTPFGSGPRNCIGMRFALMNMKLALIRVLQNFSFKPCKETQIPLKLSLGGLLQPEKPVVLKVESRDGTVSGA
# [15] = viability of uninfected HEp-2 cells – cell-based, HTS, cytotoxicity control for RSV inhibitor project, dose response (AID 2410); type: functional; conditions: human respiratory syncytial virus
# [16] = test system: Streptococcus sp. 'group A'; experiment: Streptococcus pyogenes SK(-)GAS viability under kanamycin – luminescence, BacTiterGlo, confirmation, counter-screen for streptokinase expression inhibitor project, dose response (AID 1900); type: functional, organism-based
# [17] = biological target: T2, Streptokinase A (Streptococcus pyogenes serotype M1, UniProt P10520); experiment: viability-normalized secreted streptokinase activity reduction – plasminogen activation absorbance, OD405, dose response (AID 1914); type: functional, Streptococcus pyogenes M1 GAS;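 also: secreted streptokinase activity via plasminogen activation per viability signal from cell pellet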
# T2 sequence (P10520 whole entry): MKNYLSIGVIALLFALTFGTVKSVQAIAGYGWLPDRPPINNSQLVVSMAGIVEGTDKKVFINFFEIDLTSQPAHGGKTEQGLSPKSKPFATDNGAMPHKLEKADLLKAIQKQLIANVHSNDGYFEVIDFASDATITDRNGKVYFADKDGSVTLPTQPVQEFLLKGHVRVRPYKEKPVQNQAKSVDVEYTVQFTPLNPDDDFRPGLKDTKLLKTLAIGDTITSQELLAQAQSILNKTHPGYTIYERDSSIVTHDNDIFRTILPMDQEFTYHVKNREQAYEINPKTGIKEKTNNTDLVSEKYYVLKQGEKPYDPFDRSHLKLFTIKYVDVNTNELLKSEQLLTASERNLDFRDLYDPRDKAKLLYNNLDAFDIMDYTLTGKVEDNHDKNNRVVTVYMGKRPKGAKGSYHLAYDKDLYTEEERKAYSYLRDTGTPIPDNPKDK
# [18] = test system: Streptococcus; experiment: GAS UMAA2166 growth inhibition – luminescence, BacTiterGlo, counter-screen for streptokinase expression inhibitor project, dose response (AID 1915); type: functional, organism-based;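 also: potency for reduction of bacterial viability or growth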
compound,measurement,setting,value
CNC(=O)N(O)C1N(/N=C/c2c(F)cccc2Cl)C(=S)SC1(C)C (stereo not drawn),EC50,[1],> 260 µM (inactive)
O=C(COC(=O)C1CC2C=CC1C2)Nc1ccc2c(c1)OC(F)(F)O2 (stereo not drawn),EC50,[1],> 260 µM (inactive)
CCCCn1cc(S(=O)(=O)c2ccccc2)c(=O)c2cc(C)ccc21,EC50,[2],> 195 µM (not active)
CN(C)c1ccc(N=Nc2ccc(C(=O)O)cc2)cc1,EC50,[3],11.8 µM (active)
same,EC50,[2],1.68 µM (active)
CCC(=O)c1ccc(OCC(O)CN2CCN(c3cccc(C(F)(F)F)c3)CC2)cc1 (stereo not drawn),CC50,[4],> 40 µM (active)
Cc1ccc(S(=O)(=O)NC2c3cccc4cccc(c34)C2Sc2nncn2C)cc1 (stereo not drawn),EC50,[1],> 260 µM (inactive)
Cc1ccc(/C=N\NC(=O)Cc2noc3ccccc23)cc1,EC50,[2],> 195 µM (not active)
CSc1ccc(C#N)cc1NC(=O)c1cccc(Cl)c1,AC50,[5],10 µM (inconclusive)
same,AC50,[6],39.8 µM (inconclusive)
C/C(=N\NC(=O)c1nnn(-c2nonc2N)c1C(C)C)c1ccncc1,EC50,[2],> 195 µM (not active)
c1coc(CN2CCN(C(c3cccs3)c3nnnn3C3CCCC3)CC2)c1 (stereo not drawn),AC50,[6],31.6 µM (inconclusive)
COc1cccc(N/C([S-])=C(/C(=O)c2cc(C)n(-c3ccccc3F)c2C)[n+]2ccc(N(C)C)cc2)c1,EC50,[7],0.645 µM (active)
same,CC50,[4],> 40 µM (active)
same,EC50,[8],> 60 µM (not active)
Cc1cccc(N(C(=O)c2ccc(CN3CCOCC3)o2)C(C(=O)NC(C)(C)C)c2ccc(F)cc2)c1 (stereo not drawn),EC50,[1],> 260 µM (inactive)
COc1cc(/C=N/NC(=O)c2ccc(CSc3nncn3C)cc2)cc(OC)c1O,AC50,[9],2.25 µM (active)
Nc1n[nH]c(-c2cccc([N+](=O)[O-])c2)n1,EC50,[10],> 150 µM (inactive)
Cc1nn(Cc2ccc(Cl)cc2)c(C)c1N,AC50,[9],28.5 µM (active)
O=C(COC(=O)C1(c2ccccc2F)CCCC1)N1CCc2ccccc21,EC50,[2],> 195 µM (not active)
Cc1ccc(N(CC(=O)NCCSc2nc3ccccc3s2)S(=O)(=O)c2ccccc2)c(C)c1,EC50,[11],> 120 µM (not active)
same,EC50,[3],> 120 µM (not active)
same,EC50,[12],14.8 µM (active)
CCN(CC)C(=S)SCC(=O)Nc1nc(=O)c2ccccc2s1,EC50,[2],> 195 µM (not active)
COc1ccc(OC)c(NC(=O)CCN2CCN(c3ccccc3)CC2)c1,AC50,[9],3.7 µM (active)
O=C(c1ccccc1)c1cccn1CC(=O)N1CCN(c2ccccc2)CC1,AC50,[9],12.4 µM (active)
COC(=O)c1cnc(Oc2ccc(NC(=O)NC(=O)c3c(OC)cccc3OC)cc2)cc1C(F)(F)F,EC50,[11],0.293 µM (active)
same,EC50,[3],0.142 µM (active)
same,EC50,[12],0.111 µM (active)
O=C(COc1ccc(Cl)cc1)NCCCNC(=O)c1ccccn1,EC50,[1],> 260 µM (inactive)
COC(=O)CCC(=O)C1=C(N)CC(C)(C)CC1=O,EC50,[1],> 260 µM (inactive)
CCOc1cc(-c2cc(-c3ccc(C)cc3)nc(N)c2C#N)ccc1O,EC50,[11],14.7 µM (active)
same,EC50,[3],> 120 µM (not active)
same,EC50,[12],10.7 µM (active)
CSCCC1NC(=O)N(CC(=O)N2N=C(c3ccc(Cl)cc3)CC2c2ccco2)C1=O (stereo not drawn),CC50,[4],> 40 µM (active)
CO[C@H]1OC[C@@]2(C)[C@@H]3C4=C(CN2C(=O)OC(C)(C)C)[C@H](C)[C@H](CO)[C@H](CO)[C@H]4CC[C@H]13,AC50,[13],39.8 µM (inconclusive)
same,AC50,[14],10 µM (inconclusive)
same,AC50,[6],20 µM (inconclusive)
CCCCc1c(C)nn(-c2nnc3c4ccccc4n(CC)c3n2)c1C,CC50,[15],5.26 µM (active)
same,EC50,[16],4.61 µM (active)
same,EC50,[17],> 150 µM (not active)
same,EC50,[18],> 150 µM (not active)
O=C(Nc1cccc(-c2cn3c(n2)SCC3)c1)c1ccc(Br)o1,EC50,[10],> 150 µM (inconclusive)
